Assay results taken from paper PMC12819154, “High-throughput peptide-centric local stability assay extends protein–ligand identification to membrane proteins, tissues and bacteria” (Nature Structural & Molecular Biology, 2025).

Legend:
Format in all cases: biochemical
GuaC = molecular target: T1, GuaC (Escherichia coli, UniProt P60560); assay: HT-PELSA limited trypsin proteolysis MS, dose-response; conditions: desalted E. coli lysate, Mg2+ (10 mM MgCl2 added), 25 °C, 30 min; allosteric
T1 construct: endogenous full-length protein in desalted E. coli lysate
T1 sequence (P60560 1-347): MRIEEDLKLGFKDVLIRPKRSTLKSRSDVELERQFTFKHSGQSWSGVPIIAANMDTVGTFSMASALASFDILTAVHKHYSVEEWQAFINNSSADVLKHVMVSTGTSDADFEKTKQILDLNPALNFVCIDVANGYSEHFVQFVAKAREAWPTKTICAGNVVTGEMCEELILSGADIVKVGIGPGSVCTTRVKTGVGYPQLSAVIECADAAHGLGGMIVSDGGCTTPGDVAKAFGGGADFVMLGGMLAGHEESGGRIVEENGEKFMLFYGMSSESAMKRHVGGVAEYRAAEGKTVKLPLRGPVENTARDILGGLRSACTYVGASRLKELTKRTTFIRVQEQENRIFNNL

pbpG = molecular target: T2, pbpG (Escherichia coli, UniProt P0AFI5); assay: HT-PELSA limited trypsin proteolysis MS, single concentration; conditions: crude E. coli lysate, 10 μM ampicillin, 25 °C, 30 min
T2 construct: endogenous protein in crude E. coli lysate
T2 sequence (P0AFI5 26-310): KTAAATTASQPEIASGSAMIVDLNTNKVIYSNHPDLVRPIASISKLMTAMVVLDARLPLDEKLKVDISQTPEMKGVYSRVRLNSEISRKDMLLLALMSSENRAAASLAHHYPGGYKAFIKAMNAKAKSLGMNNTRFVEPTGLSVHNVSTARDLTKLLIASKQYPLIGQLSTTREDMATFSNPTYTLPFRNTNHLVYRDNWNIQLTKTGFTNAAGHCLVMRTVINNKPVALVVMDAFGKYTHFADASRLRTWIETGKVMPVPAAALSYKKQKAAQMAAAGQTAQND

mrcA = molecular target: T3, mrcA (Escherichia coli, UniProt P02918); assay: as above; conditions: crude E. coli lysate, 10 μM ampicillin, 25 °C, 30 min; C-terminal transpeptidase domain
T3 construct: endogenous membrane protein in crude E. coli lysate
T3 sequence (P02918 1-850): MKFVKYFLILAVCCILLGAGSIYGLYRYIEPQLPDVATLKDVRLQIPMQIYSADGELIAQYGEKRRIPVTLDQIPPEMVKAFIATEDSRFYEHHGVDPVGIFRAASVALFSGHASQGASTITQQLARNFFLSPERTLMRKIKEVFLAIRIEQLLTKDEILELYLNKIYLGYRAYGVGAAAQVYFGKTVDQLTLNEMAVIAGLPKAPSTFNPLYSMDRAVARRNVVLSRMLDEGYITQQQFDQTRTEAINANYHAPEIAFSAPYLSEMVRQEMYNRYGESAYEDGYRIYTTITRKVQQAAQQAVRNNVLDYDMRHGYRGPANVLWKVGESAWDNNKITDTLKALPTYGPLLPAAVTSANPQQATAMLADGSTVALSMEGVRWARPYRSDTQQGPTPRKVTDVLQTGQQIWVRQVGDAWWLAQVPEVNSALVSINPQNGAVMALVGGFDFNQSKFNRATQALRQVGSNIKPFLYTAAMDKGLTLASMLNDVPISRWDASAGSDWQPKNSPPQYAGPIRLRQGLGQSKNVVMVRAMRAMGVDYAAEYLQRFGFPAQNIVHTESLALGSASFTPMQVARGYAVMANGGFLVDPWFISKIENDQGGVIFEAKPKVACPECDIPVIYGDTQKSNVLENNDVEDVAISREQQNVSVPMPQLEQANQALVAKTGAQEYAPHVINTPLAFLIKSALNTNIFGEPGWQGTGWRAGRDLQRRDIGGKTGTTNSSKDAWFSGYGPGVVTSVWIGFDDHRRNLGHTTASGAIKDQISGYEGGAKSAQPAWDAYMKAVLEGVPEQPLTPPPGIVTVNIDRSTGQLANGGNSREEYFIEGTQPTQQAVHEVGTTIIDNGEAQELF

mrcB = molecular target: T4, mrcB (Escherichia coli, UniProt P02919); assay: as above; conditions: crude E. coli lysate, 10 μM ampicillin, 25 °C, 30 min; C-terminal transpeptidase domain
T4 construct: endogenous membrane protein in crude E. coli lysate
T4 sequence (P02919 1-844): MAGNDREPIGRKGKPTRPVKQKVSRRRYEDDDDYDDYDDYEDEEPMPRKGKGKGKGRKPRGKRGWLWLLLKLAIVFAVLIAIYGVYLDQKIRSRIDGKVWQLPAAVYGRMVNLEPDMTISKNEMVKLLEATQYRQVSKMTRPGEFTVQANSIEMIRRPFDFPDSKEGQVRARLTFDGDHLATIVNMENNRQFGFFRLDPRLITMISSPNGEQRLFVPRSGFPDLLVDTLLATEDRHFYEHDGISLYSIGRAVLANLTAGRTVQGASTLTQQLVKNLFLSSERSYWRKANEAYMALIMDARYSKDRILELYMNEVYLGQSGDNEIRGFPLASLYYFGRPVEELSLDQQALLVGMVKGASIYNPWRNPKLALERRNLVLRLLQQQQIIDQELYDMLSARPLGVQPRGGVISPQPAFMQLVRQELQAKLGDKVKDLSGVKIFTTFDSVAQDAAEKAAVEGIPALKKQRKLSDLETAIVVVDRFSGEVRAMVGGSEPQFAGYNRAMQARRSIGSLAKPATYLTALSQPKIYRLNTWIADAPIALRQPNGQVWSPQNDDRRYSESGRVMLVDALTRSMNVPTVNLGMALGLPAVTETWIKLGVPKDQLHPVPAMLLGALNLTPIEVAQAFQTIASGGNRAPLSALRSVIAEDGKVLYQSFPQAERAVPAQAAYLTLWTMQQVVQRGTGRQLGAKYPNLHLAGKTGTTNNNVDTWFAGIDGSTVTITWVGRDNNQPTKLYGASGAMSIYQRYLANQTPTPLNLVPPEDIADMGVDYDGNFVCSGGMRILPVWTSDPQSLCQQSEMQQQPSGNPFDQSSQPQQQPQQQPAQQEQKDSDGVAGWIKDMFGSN

ftsI = molecular target: T5, ftsI (Escherichia coli, UniProt P0AD68); assay: as above; conditions: crude E. coli lysate, 10 μM ampicillin, 25 °C, 30 min
T5 construct: endogenous membrane protein in crude E. coli lysate
T5 sequence (P0AD68 1-577): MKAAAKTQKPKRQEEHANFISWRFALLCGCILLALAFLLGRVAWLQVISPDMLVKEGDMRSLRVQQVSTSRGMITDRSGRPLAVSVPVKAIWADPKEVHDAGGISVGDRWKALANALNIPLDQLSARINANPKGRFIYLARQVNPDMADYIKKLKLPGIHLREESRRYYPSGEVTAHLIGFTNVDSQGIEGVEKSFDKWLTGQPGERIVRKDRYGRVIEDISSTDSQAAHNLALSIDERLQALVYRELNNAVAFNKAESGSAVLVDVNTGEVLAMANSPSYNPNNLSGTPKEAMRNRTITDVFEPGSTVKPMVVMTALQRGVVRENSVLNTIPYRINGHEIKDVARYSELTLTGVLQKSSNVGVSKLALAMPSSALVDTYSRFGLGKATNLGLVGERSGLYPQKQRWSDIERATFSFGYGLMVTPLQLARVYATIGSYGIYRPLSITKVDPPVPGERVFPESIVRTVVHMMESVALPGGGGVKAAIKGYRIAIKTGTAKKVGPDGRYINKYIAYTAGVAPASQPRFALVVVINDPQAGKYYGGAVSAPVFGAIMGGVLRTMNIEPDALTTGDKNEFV

dacB = molecular target: T6, dacB (Escherichia coli, UniProt P24228); assay: as above; conditions: crude E. coli lysate, 10 μM ampicillin, 25 °C, 30 min
T6 construct: endogenous protein in crude E. coli lysate
T6 sequence (P24228 21-477): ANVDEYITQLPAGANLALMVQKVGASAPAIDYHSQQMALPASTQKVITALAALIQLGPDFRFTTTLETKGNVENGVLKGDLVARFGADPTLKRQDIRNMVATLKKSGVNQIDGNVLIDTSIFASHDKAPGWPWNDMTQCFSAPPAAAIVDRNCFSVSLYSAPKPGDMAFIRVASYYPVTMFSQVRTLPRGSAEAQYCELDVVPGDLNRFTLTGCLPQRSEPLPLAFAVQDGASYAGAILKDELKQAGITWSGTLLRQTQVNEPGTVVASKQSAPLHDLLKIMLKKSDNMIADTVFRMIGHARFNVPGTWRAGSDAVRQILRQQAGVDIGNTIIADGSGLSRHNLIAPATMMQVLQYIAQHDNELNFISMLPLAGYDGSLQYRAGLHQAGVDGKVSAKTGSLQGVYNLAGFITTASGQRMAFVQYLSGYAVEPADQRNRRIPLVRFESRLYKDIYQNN

α subunit Prkaa2 of Ampk = molecular target: T7, α subunit Prkaa2 of Ampk (Mus musculus, UniProt Q8BRK8); assay: HT-PELSA limited trypsin proteolysis MS, dose-response; conditions: mouse heart lysate in PBS, 25 °C, 30 min, 0.2 nM-20 μM
T7 construct: endogenous catalytic subunit of AMPK in mouse heart lysate
T7 sequence (Q8BRK8 whole entry): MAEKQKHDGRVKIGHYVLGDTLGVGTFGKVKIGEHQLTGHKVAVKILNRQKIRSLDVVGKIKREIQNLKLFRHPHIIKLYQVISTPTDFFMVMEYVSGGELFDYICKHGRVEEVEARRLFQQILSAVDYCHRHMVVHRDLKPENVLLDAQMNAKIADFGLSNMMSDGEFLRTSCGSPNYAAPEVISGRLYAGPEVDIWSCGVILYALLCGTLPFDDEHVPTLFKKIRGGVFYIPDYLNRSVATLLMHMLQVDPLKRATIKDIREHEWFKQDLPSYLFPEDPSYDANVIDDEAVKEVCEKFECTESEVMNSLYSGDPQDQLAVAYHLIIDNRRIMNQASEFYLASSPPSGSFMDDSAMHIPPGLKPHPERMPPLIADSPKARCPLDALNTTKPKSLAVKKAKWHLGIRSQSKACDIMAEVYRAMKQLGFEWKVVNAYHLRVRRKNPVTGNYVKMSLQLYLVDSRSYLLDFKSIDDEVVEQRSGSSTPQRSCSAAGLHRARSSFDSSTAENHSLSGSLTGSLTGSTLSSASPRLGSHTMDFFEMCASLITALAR

Csn1ke = molecular target: T8, Csn1ke (Mus musculus, UniProt Q9JMK2); assay: as above; conditions: mouse heart lysate in PBS, 25 °C, 30 min, 0.2 nM-20 μM
T8 construct: gene Csnk1e; endogenous protein in mouse heart lysate; printed Csn1ke read as Csnk1e
T8 sequence (Q9JMK2 1-416): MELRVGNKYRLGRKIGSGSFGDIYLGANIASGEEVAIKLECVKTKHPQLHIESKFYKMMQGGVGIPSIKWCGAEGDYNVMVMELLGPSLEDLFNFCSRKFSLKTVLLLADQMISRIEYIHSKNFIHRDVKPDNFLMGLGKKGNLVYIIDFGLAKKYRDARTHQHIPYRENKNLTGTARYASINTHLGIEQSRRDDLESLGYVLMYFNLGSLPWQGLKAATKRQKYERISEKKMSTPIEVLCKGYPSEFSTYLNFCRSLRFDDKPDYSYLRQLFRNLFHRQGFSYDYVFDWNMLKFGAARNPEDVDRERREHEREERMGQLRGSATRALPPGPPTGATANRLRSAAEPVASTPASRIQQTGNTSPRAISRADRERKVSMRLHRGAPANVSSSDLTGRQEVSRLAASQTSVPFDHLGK

For `Nc1ncnc2c1ncn2[C@@H]1O[C@H](COP(=O)(O)OP(=O)(O)OP(=O)(O)O)[C@@H](O)[C@H]1O` [ATP], which pEC50 (GuaC) is on record?
Its pEC50 is “Among the non-annotated ATP binders, we identify GuaC”.

`CC1(C)S[C@@H]2[C@H](NC(=O)[C@H](N)c3ccccc3)C(=O)N2[C@H]1C(=O)O` [ampicillin] was tested. Which “HT-PELSA limited trypsin proteolysis MS, single concentration” value (from here on “HT-PELSA limited trypsin proteolysis MS”) (pbpG) did it give?
Its value is “HT-PELSA identified five known targets of ampicillin (mrcA, mrcB, ftsI, dacB and pbpG”.

And the “HT-PELSA limited trypsin proteolysis MS” value (mrcA)?
Its value is “HT-PELSA identified five known targets of ampicillin (mrcA, mrcB, ftsI, dacB and pbpG”.

What about the “HT-PELSA limited trypsin proteolysis MS” value (mrcB) of the same compound?
The value was “HT-PELSA identified five known targets of ampicillin (mrcA, mrcB, ftsI, dacB and pbpG”.

And the “HT-PELSA limited trypsin proteolysis MS” value (ftsI)?
The value was “HT-PELSA identified five known targets of ampicillin (mrcA, mrcB, ftsI, dacB and pbpG”.

And the “HT-PELSA limited trypsin proteolysis MS” value (dacB)?
Its value is “HT-PELSA identified five known targets of ampicillin (mrcA, mrcB, ftsI, dacB and pbpG”.

For `CCN(CC)CCNC(=O)c1c(C)[nH]c(/C=C2\C(=O)Nc3ccc(F)cc32)c1C` [sunitinib], which pEC50 (α subunit Prkaa2 of Ampk) is on record?
Its pEC50 is “the α subunit Prkaa2 of Ampk, Camk2g, Csn1ke and Csnk1g2”.

What about the pEC50 (Csn1ke) of the same compound?
The pEC50 was “the α subunit Prkaa2 of Ampk, Camk2g, Csn1ke and Csnk1g2”.
